Source: patent US9012182B2, “Method for producing purine nucleosides and nucleotides by fermentation using bacterium belonging to the genus Bacillus or Escherichia” (Ajinomoto Co., Inc., priority 2004, dated 2015)

Assays:
Format in all cases: cell-based
[1] = system: E. coli strain TG1 (pMW118); assay: Growth on M9 glucose minimal agar with purine base analogues, vector control strain; conditions: 44 h at 37° C. Also: key: +: good growth; −: no growth.
Description: (§1) The pYDHL1 plasmid and the vector were used to transform the E. coli strain TG1 (Amersham Pharmacia Biotech) via standard techniques. Transformants were selected on L-broth agar plates with 100 μg/ml ampicillin. Thus, the E. coli strains TG1 (pYDHL1) and TG1 (pMW118) were obtained. Then the ability of these strains to grow in the presence of purine base analogues was determined on M9 glucose minimal agar plates containing graded concentrations of an inhibitor. The plates were spotted with 10^5 to 10^6 cells from an overnight culture grown in a minimal medium (supplemented with 100 μg/ml of ampicillin). The growth was estimated after 44 h incubation at 37° C.

[2] = system: E. coli strain TG1 (pYDHL1); assay: Growth on M9 glucose minimal agar with purine base analogues, ydhL-amplified strain; conditions: 44 h at 37° C. Also: key: +: good growth; −: no growth.
Description: as §1

[3] = system: B. subtilis 168; assay: Growth on M9 glucose minimal agar with purine analogues, control strain; conditions: 48 h at 34° C.
Description: (§2) The pYDHL3, pYDHL4 plasmids and the pMWMX1 vector were used to transform wild-type B. subtilis strain 168 via standard techniques. Transformants were selected on L-broth agar plates with 10 μg/ml erythromycin. Thus, the strains B. subtilis 168(pMWMX1), B. subtilis 168(pYDHL3) and B. subtilis 168(pYDHL4) were obtained. Then, the ability of these strains to grow in the presence of purine base analogues was determined on M9 glucose minimal agar plates (minimal medium M9, glucose-2%, vitamin assay casamino acids (Difco)—0.1%, tryptophan—100 μg/ml) containing graded concentrations of a purine analogue. The plates were spotted with 10^5 to 10^6 cells from an overnight culture grown on the above agar plates without the analogues. The growth was estimated after 48 h incubation at 34° C.

[4] = system: B. subtilis 168(pYDHL4); assay: Growth on M9 glucose minimal agar with purine analogues, ydhLBa-amplified strain; conditions: 48 h at 34° C. Also: key: +: good growth; −: no growth.
Description: as §2

[5] = system: B. subtilis 168(pYDHL3); assay: Growth on M9 glucose minimal agar with purine analogues, ydhLBs-amplified strain; conditions: 48 h at 34° C. Also: key: +: good growth; −: no growth.
Description: as §2

[6] = system: E. coli deoD gsk3 (pMW118); assay: Growth on minimal medium with inosine or guanosine, vector control strain; also: key: +: good growth; −: no growth
Description: as §1
(§3) The pYDHL1 plasmid and the pMW118 vector were also transformed into the E. coli strain TG1 deoD gsk3. The E. coli strain TG1 deoD gsk3 was an especially constructed parental strain which is used for checking the resistance to inosine and guanosine. This strain was obtained by sequential introduction of a deoD mutation, as described in PCT application WO9903988 and gsk3 mutation described by Petersen C. (J. Biol. Chem., 274, 5348-5356, 1999) using phage P1-mediated transduction into the known strain TG1 (VKPM B-5837), which is resistant to inosine and guanosine due to its ability to degrade purine. The strain TG1 deoD gsk3 cannot degrade guanosine and inosine due to a deoD mutation (WO9903988), and it is sensitive to nucleosides due to a gsk3 mutation (Petersen C. J. Biol. Chem., 274, 5348-5356, 1999). Thus, the strains TG1 deoD gsk3 (pYDHL1) and TG1 deoD gsk3 (pMW118) were obtained. Then the ability of these strains to grow in the presence of inosine and guanosine was determined as above.

[7] = system: E. coli deoD gsk3 (pYDHL1); assay: Growth on minimal medium with inosine or guanosine, ydhL-amplified strain; conditions: for Resistance conferred by ydhL gene overexpression: summary in words of Table 2, pYDHL1 versus pMW118; as to Growth on the minimal medium containing Guanosine 10 mg/l: key: +: good growth; −: no growth; as to Growth on the minimal medium containing Guanosine 15 mg/l: key: +: good growth; −: no growth; as to Growth on the minimal medium containing Inosine 1000 mg/l: key: +: good growth; −: no growth; as to Growth on the minimal medium containing Inosine 300 mg/l: key: +: good growth; −: no growth
Description: as §1, §3

## Nc1ncnc2nn[nH]c12 [AzaA, 8-azaadenine]
[1]; AzaA 300 μg/ml
  Growth on the minimal medium containing AzaA, 300 μg/ml: −
[2]; AzaA 300 μg/ml
  Growth on the minimal medium containing AzaA, 300 μg/ml: +
[3]; AzaA 2 mg/ml
  Growth on the minimal medium containing AzaA, 2 mg/ml: −
[4]; AzaA 2 mg/ml
  Growth on the minimal medium containing AzaA, 2 mg/ml: +

## Nc1nc2nn[nH]c2c(=O)[nH]1 [AzaG, 8-azaguanine]
[3]; AzaG 2 μg/ml
  Growth on the minimal medium containing AzaG, 2 μg/ml: −
[3]; AzaG 10 μg/ml
  Growth on the minimal medium containing AzaG, 10 μg/ml: −
[5]; AzaG 2 μg/ml
  Growth on the minimal medium containing AzaG, 2 μg/ml: +
[4]; AzaG 2 μg/ml
  Growth on the minimal medium containing AzaG, 2 μg/ml: +
[4]; AzaG 10 μg/ml
  Growth on the minimal medium containing AzaG, 10 μg/ml: +

## Nc1nc(N)c2[nH]cnc2n1 [DAP, 2,6-diaminopurine]
[1]; DAP 400 μg/ml
  Growth on the minimal medium containing DAP, 400 μg/ml: −
[2]; DAP 400 μg/ml
  Growth on the minimal medium containing DAP, 400 μg/ml: +

## Nc1nc2c(ncn2[C@@H]2O[C@H](CO)[C@@H](O)[C@H]2O)c(=O)[nH]1 [Guanosine]
[6]; guanosine 10 mg/l
  Growth on the minimal medium containing Guanosine 10 mg/l: −
[6]; guanosine 15 mg/l
  Growth on the minimal medium containing Guanosine 15 mg/l: −
[7]; guanosine 10 mg/l, E. coli deoD gsk3 (pYDHL1)
  Growth on the minimal medium containing Guanosine 10 mg/l: +
[7]; guanosine 15 mg/l, E. coli deoD gsk3 (pYDHL1)
  Growth on the minimal medium containing Guanosine 15 mg/l: −
[7]
  Resistance conferred by ydhL gene overexpression: low-level resistance

## OC[C@H]1O[C@@H](n2cnc3c(O)ncnc32)[C@H](O)[C@@H]1O [Inosine]
[6]; inosine 300 mg/l
  Growth on the minimal medium containing Inosine 300 mg/l: −
[6]; inosine 1000 mg/l
  Growth on the minimal medium containing Inosine 1000 mg/l: −
[7]; inosine 300 mg/l, E. coli deoD gsk3 (pYDHL1)
  Growth on the minimal medium containing Inosine 300 mg/l: +
[7]; inosine 1000 mg/l, E. coli deoD gsk3 (pYDHL1)
  Growth on the minimal medium containing Inosine 1000 mg/l: +
[7]
  Resistance conferred by ydhL gene overexpression: high-level resistance

## Sc1ncnc2nc[nH]c12 [MP, 6-mercaptopurine]
[1]; MP 400 μg/ml
  Growth on the minimal medium containing MP, 400 μg/ml: −
[2]; MP 400 μg/ml
  Growth on the minimal medium containing MP, 400 μg/ml: +

## Cc1ncnc2nc[nH]c12 [MePur, 6-methylpurine]
[3]; MePur 20 μg/ml
  Growth on the minimal medium containing MePur, 20 μg/ml: −
[5]; MePur 20 μg/ml
  Growth on the minimal medium containing MePur, 20 μg/ml: +
[4]; MePur 20 μg/ml
  Growth on the minimal medium containing MePur, 20 μg/ml: +
